Reference: patent US20250304576A1 (Cancer Research Technology Limited, priority 2022, published 2025)

biological target: T1, IKBKB (IKKβ) (Homo sapiens, UniProt O14920); test: Z'-LYTE IKKβ assay (Life Technologies); assay type: biochemical; details: not given
T1 construct: purchased Life Technologies (assay performed by the vendor)
T1 sequence (O14920 1-756): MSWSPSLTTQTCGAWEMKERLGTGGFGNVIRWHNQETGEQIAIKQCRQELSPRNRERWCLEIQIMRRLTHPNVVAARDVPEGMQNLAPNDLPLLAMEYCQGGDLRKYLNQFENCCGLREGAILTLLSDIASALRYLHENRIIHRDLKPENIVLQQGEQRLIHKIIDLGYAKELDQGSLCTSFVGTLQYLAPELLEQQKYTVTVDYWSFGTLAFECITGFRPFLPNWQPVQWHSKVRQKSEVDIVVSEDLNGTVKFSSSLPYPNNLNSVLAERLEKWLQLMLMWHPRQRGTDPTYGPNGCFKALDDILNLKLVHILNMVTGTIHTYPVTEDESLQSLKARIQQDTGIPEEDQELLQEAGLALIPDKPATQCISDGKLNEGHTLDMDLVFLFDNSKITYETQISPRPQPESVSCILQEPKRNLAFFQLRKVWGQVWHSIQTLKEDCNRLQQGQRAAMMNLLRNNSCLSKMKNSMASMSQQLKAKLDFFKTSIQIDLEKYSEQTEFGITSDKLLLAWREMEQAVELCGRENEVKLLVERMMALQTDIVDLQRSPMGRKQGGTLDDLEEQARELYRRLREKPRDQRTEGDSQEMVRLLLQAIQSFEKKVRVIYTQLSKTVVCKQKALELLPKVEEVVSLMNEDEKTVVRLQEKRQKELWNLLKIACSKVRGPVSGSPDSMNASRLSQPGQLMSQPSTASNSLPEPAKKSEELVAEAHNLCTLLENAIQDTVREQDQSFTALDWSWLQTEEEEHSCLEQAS
Protocol: IKKα and IKKβ inhibitory activity was determined using three different assays: a dissociation enhanced ligand fluorescent immunoassay (DELFIA) based on the protocol of HTScan™ IKKβ Kinase Assay (Cell Signaling Technology, USA); an Adapta IKKα assay (performed by Life Technologies); a Z′-LYTE™ IKKβ assay (performed by Life Technologies).
The reaction was performed in low volume NBS, black 384-well plates (Corning model 4514).
The test compounds were screened in 1% DMSO (final) in the well. For 10 point titrations, 3-fold serial dilutions were conducted from the starting concentration of 50 mM.
The 2× IKBKB (IKKβ)/Ser/Thr 05 mixture was prepared in 50 mM HEPES pH 7.5, 0.01% BRIJ-35, 10 mM MgCl2, 1 mM EGTA. The final 10 μL Kinase Reaction consisted of 0.62-4 ng IKBKB (IKKβ) and 2 μM Ser/Thr 05 in 50 mM HEPES pH 7.5, 0.01% BRIJ-35, 10 mM MgCl2, 1 mM EGTA.
5 μL of 2× Kinase reaction was incubated with 2.5 μL of ATP solution diluted to a 4× working concentration in Kinase Buffer (50 mM HEPES pH 7.5, 0.01% BRIJ-35, 10 mM MgCl2, 1 mM EGTA) in the presence of […] of 100× test compound in 100% DMSO and 2.4 μL of Kinase buffer.
The resulting kinase reaction was allowed to incubate for 1 hour at room temperature before 5 μL of a 1:64 dilution of Development Reagent B was added and the resulting Development Reaction was incubated for another hour at room temperature. Then the plate was read on a fluorescence plate reader and the data analysed.
A ratiometric method, which calculated the Emission Ratio of donor emission (i.e. coumarin) to acceptor emission (i.e. fluorescein) after excitation of the donor fluorophore at 400 nm, was used to quantitate reaction progress, as shown in the equation below.

Going from `Nc1n[nH]c2ccc(-c3ccnc4[nH]c(CN5CCOCC5)cc34)cc12` [Example 262, 5-(2-(Morpholinomethyl)-1H-pyrrolo[2,3-b]pyridine-4-yl)-1H-indazol-3-amine] to `Nc1n[nH]c2ccc(-c3ccnc4[nH]c(CCN5CCOCC5)cc34)cc12` [Example 268, 5-(2-(2-Morpholinoethyl)-1H-pyrrolo[2,3-b]pyridin-4-yl)-1H-indazol-3-amine], the IC50 falls from 269 nM to 138 nM (1.9-fold). The second is the more potent here.

Compared with `Nc1n[nH]c2ccc(-c3ccnc4[nH]c(C5CCOCC5)cc34)cc12` [Example 228, 5-(2-(tetrahydro-2H-pyran-4-yl)-1H-pyrrolo[2,3-b]pyridin-4-yl)-1H-indazol-3-amine], `Nc1n[nH]c2ccc(-c3ccnc4[nH]c(CC5CCOCC5)cc34)cc12` [Example 230, 5-(2-((tetrahydro-2H-pyran-4-yl)methyl)-1H-pyrrolo[2,3-b]pyridin-4-yl)-1H-indazol-3-amine] is 1.9-fold higher in IC50: 32 nM for the first, 60 nM for the second.

Going from `CN(C)CCCNCc1cc2c(-c3ccc4[nH]nc(N)c4c3)ccnc2[nH]1` [Example 258, N^1-((4-(3-amino-1H-indazol-5-yl)-1H-pyrrolo[2,3-b]pyridin-2-yl)methyl)-N^3,N^3-dimethylpropane-1,3-diamine] to `CC(C)(C)NCc1cc2c(-c3ccc4[nH]nc(N)c4c3)ccnc2[nH]1` [Example 248, 5-(2-((tert-Butylamino)methyl)-1H-pyrrolo[2,3-b]pyridine-4-yl)-1H-indazol-3-amine], the IC50 rises from 245 nM to 1430 nM (5.8-fold). The first is the more potent here.

`Nc1n[nH]c2ccc(-c3ccnc4[nH]c(CCN5CCCCC5)cc34)cc12` [Example 267, 5-(2-(2-(Piperidin-1-yl)ethyl)-1H-pyrrolo[2,3-b]pyridine-4-yl)-1H-indazol-3-amine] and `Nc1n[nH]c2ccc(-c3ccnc4[nH]c(CCC5CCCCC5)cc34)cc12` [Example 222, 5-(2-(2-Cyclohexylethyl)-1H-pyrrolo[2,3-b]pyridin-4-yl)-1H-indazol-3-amine] are within 1.5-fold of each other in IC50: 235 nM for the first, 268 nM for the second.

First: Nc1n[nH]c2c(C#CC3CCCC3)cc(-c3ccnc4[nH]ccc34)cc12 [Example 203, 7-(Cyclopentylethynyl)-5-(1H-pyrrolo[2,3-b]pyridin-4-yl)-1H-indazol-3-amine]
Second: Nc1n[nH]c2c(C#CC3CC3)cc(-c3ccnc4[nH]ccc34)cc12 [Example 202, 7-(Cyclopropylethynyl)-5-(1H-pyrrolo[2,3-b]pyridin-4-yl)-1H-indazol-3-amine]
The IC50 of the first is 3.3-fold higher: 1530 nM for the first, 470 nM for the second.

Going from `Nc1n[nH]c2ccc(-c3ccnc4[nH]c(C(=O)N5CCCC5)cc34)cc12` [Example 234, (4-(3-Amino-1H-indazol-5-yl)-1H-pyrrolo[2,3-b]pyridin-2-yl)(pyrrolidin-1-yl)methanone] to `Nc1n[nH]c2ccc(-c3ccnc4[nH]c(C(=O)NC5CCCCC5)cc34)cc12` [Example 236, 4-(3-Amino-1H-indazol-5-yl)-N-cyclohexyl-1H-pyrrolo[2,3-b]pyridine-2-carboxamide], the IC50 falls from 790 nM to 20 nM (40-fold). The second is the more potent here.

`Nc1n[nH]c2ccc(-c3ccnc4[nH]c(CN5CCC(F)(F)CC5)cc34)cc12` [Example 261, 5-(2-((4,4-Difluoropiperidin-1-yl)methyl)-1H-pyrrolo[2,3-b]pyridine-4-yl)-1H-indazol-3-amine] and `CN1CCCN(Cc2cc3c(-c4ccc5[nH]nc(N)c5c4)ccnc3[nH]2)CC1` [Example 266, 5-(2-((4-Methyl-1,4-diazepan-1-yl)methyl)-1H-pyrrolo[2,3-b]pyridin-4-yl)-1H-indazol-3-amine] are within 1.5-fold of each other in IC50: 286 nM for the first, 380 nM for the second.

Going from `Nc1n[nH]c2c(C#CCCCN3CCCCC3)cc(-c3ccnc4[nH]ccc34)cc12` [Example 212, 7-(5-(Piperidin-1-yl)pent-1-yn-1-yl)-5-(1H-pyrrolo[2,3-b]pyridin-4-yl)-1H-indazol-3-amine] to `C#Cc1cc(-c2ccnc3[nH]ccc23)cc2c(N)n[nH]c12` [Example 200, 7-Ethynyl-5-(1H-pyrrolo[2,3-b]pyridin-4-yl)-1H-indazol-3-amine], the IC50 falls from 1140 nM to 158 nM (7.2-fold). The second is the more potent here.

`CC(C)(C)Cc1cc2c(-c3ccc4[nH]nc(N)c4c3)ccnc2[nH]1` [Example 220, 5-(2-Neopentyl-1H-pyrrolo[2,3-b]pyridin-4-yl)-1H-indazol-3-amine] and `CC(C)(C)OCc1cc2c(-c3ccc4[nH]nc(N)c4c3)ccnc2[nH]1` [Example 227, 5-(2-(tert-Butoxymethyl)-1H-pyrrolo[2,3-b]pyridin-4-yl)-1H-indazol-3-amine] are within 1.5-fold of each other in IC50: 483 nM for the first, 388 nM for the second.

Compared with `CC(C)(C)C#Cc1cc(-c2ccnc3[nH]ccc23)cc2c(N)n[nH]c12` [Example 201, 7-(3,3-Dimethylbut-1-yn-1-yl)-5-(1H-pyrrolo[2,3-b]pyridin-4-yl)-1H-indazol-3-amine], `Nc1n[nH]c2ccc(-c3ccnc4[nH]c(CO)cc34)cc12` [Example 224] is 43-fold lower in IC50: 1200 nM for the first, 28 nM for the second. The second is the more potent here.

same assay, conditions: Life Technologies assay

First: Nc1nccc(-c2ccc3[nH]nc(N)c3c2)c1C#CC1(O)CCCCC1 [Example 90, 1-((2-Amino-4-(3-amino-1H-indazol-5-yl)pyridine-3-yl)ethynyl)cyclohexan-1-ol]
Second: Nc1nccc(-c2ccc3[nH]nc(N)c3c2)c1C#CC1CCCCC1 [Example 74, 5-(2-Amino-3-(cyclohexylethynyl)pyridine-4-yl)-1H-indazol-3-amine]
The IC50 of the first is 1.7-fold lower: 205 nM for the first, 342 nM for the second.

Compared with `Nc1nccc(-c2ccc3[nH]nc(N)c3c2)c1C#CCCCN1CCCCC1` [Example 95, 5-(2-Amino-3-(5-(piperidin-1-yl)pent-1-yn-1-yl)pyridin-4-yl)-1H-indazol-3-amine], `Nc1nccc(-c2ccc3[nH]nc(N)c3c2)c1C#CCCN1CCCCC1` [Example 93, 5-(2-Amino-3-(4-(piperidin-1-yl)but-1-yn-1-yl)pyridin-4-yl)-1H-indazol-3-amine] is 2.1-fold lower in IC50: 545 nM for the first, 254 nM for the second. The second is the more potent here.

Compared with `Nc1cc(-c2cc(-c3ccccc3)c3[nH]nc(N)c3c2)ccn1` [Example 104, 5-(2-Aminopyridin-4-yl)-7-phenyl-1H-indazol-3-amine], `CC(C)(O)C#Cc1cc(-c2ccnc(N)c2)cc2c(N)n[nH]c12` [Example 140, 4-(3-Amino-5-(2-aminopyridin-4-yl)-1H-indazol-7-yl)-2-methylbut-3-yn-2-ol] is 19-fold higher in IC50: 162 nM for the first, 3090 nM for the second. The first is the more potent here.

Going from `Nc1nccc(-c2ccc3[nH]nc(N)c3c2)c1C#CCCCN1CCOCC1` [Example 96, 5-(2-Amino-3-(5-morpholinopent-1-yn-1-yl)pyridin-4-yl)-1H-indazol-3-amine] to `Nc1nccc(-c2ccc3[nH]nc(N)c3c2)c1C#CCCC(=O)N1CCOCC1` [Example 99, 5-(2-Amino-4-(3-amino-1H-indazol-5-yl)pyridine-3-yl)-1-morpholinopent-4-yn-1-one], the IC50 falls from 705 nM to 264 nM (2.7-fold). The second is the more potent here.

Compared with `Nc1nccc(-c2ccc3[nH]nc(N)c3c2)c1C#Cc1ccccc1` [Example 75, 5-(2-Amino-3-(phenylethynyl)pyridine-4-yl)-1H-indazol-3-amine], `Nc1nccc(-c2ccc3[nH]nc(N)c3c2)c1C#CCO` [Example 83, 3-(2-Amino-4-(3-amino-1H-indazol-5-yl)pyridine-3-yl)prop-2-yn-1-ol] is 2.8-fold lower in IC50: 101 nM for the first, 36 nM for the second.

`CC(C)(C)C#Cc1c(-c2ccc3[nH]nc(N)c3c2)ccnc1N` [Example 72, 5-(2-Amino-3-(3,3-dimethylbut-1-yn-1-yl)pyridine-4-yl)-1H-indazol-3-amine] and `CC(C)(N)C#Cc1c(-c2ccc3[nH]nc(N)c3c2)ccnc1N` [Example 92, 5-(2-Amino-3-(3-amino-3-methylbut-1-yn-1-yl)pyridin-4-yl)-1H-indazol-3-amine] are within 1.5-fold of each other in IC50: 65 nM for the first, 87 nM for the second.

Going from `Nc1nccc(-c2ccc3[nH]nc(N)c3c2)c1C#CCCO` [Example 84, 4-(2-Amino-4-(3-amino-1H-indazol-5-yl)pyridine-3-yl)but-3-yn-1-ol] to `CC(C)(C)OCC#Cc1c(-c2ccc3[nH]nc(N)c3c2)ccnc1N` [Example 88, 5-(2-Amino-3-(3-(tert-butoxy)prop-1-yn-1-yl)pyridine-4-yl)-1H-indazol-3-amine], the IC50 rises from 53 nM to 442 nM (8.3-fold).
